Measurements from paper PMC10401705, “Imaging Saturation Transfer Difference (STD) NMR: Affinity and Specificity of Protein–Ligand Interactions from a Single NMR Sample” (Journal of the American Chemical Society, 2023).

How the values were obtained:
[1] = target: T1, bovine serum albumin (BSA) (Bos taurus, UniProt P02769); test: imaging STD NMR, initial slopes (STD-AF0), Langmuir fit; format: binding
T1 construct: gene ALB

[2] = target: T2, wheat germ agglutinin (WGA); test: as above; format: binding, Triticum aestivum
T2 construct: gene WGA1

T1 sequence (P02769 25-607): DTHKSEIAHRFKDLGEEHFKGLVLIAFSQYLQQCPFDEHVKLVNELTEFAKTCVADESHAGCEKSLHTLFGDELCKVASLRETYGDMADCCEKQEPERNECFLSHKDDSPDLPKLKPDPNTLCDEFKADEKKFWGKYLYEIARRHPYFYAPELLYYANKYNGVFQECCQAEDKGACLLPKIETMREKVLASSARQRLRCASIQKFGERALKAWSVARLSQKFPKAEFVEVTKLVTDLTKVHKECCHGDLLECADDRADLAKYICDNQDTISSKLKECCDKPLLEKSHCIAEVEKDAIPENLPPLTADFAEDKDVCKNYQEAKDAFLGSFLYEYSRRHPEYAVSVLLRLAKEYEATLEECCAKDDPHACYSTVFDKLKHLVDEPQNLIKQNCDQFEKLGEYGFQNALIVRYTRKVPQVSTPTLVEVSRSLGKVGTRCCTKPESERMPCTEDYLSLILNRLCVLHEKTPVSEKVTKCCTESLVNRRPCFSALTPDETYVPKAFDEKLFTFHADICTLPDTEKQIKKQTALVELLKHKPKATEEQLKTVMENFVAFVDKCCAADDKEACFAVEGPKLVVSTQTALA

In the case of `N[C@@H](Cc1c[nH]c2ccccc12)C(=O)O` [tryptophan], the Kd [1] is reported as 231 ± 50 µM.

`CC(=O)N[C@H]1C(O)O[C@H](CO)[C@@H](O)[C@@H]1O` (some centres unmarked) [GlcNAc] showed a Kd [2] of 2240 ± 180 µM.
